Among the data in patent publication US5364877A, “Indole derivatives as 5-lipoxygenase inhibitors” (ICI Pharma, priority 1990, dated 1994) are ED50 values, retold here.

Usually ED50 stands for the dose at which the effect has come halfway, by size or by number of responders.

The experiment concerns the target T1, 5-LO (Rattus norvegicus, UniProt P12527).
T1 construct: liberation of LTB4 induced by zymosan within an air pouch generated within the subcutaneous tissue of the back of male rats; endogenous in cells; host or cells: cells in the air pouch of living male rats (in vivo)
T1 sequence (P12527 1-673): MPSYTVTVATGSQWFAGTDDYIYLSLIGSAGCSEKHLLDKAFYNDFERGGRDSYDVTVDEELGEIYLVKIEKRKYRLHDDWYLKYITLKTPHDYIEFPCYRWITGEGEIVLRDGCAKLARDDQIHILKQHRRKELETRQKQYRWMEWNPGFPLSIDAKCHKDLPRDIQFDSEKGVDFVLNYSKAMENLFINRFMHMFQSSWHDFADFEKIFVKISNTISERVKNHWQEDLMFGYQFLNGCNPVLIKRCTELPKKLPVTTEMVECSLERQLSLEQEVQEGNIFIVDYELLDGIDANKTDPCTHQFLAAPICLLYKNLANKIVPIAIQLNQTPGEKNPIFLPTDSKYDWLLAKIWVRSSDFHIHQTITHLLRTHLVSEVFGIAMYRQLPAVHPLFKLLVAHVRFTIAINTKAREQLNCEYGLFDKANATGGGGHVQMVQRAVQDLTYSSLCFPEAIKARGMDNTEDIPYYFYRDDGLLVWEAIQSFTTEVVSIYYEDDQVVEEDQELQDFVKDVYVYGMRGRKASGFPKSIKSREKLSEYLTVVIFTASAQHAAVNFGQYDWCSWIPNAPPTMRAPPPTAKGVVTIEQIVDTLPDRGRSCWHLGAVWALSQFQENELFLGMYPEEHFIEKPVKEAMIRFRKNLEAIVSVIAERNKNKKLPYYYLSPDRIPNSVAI
Nature of the experiment: Test g) zymosan-induced liberation of LTB4 within an air pouch in male rats. It is filed as in vivo. Conditions: rat, 3 h; test g), oral. Here is the method: g) An in vivo system involving measuring the effects of a test compound administered orally against the liberation of LTB4 induced by zymosan within an air pouch generated within the subcutaneous tissue of the back of male rats. The rats are anaesthetised and air pouches are formed by the injection of sterile air (20 ml). A further injection of air (10 ml) is similarly given after 3 days. At 6 days after the initial air injection the test compound is administered (usually orally as the suspension produced when a solution of the test compound in dimethylsulphoxide is added to hydroxypropylmethylcellulose), followed by the intrapouch injection of zymosan (1 ml of a 1% suspension in physiological saline). After 3 hours the rats are killed, the air pouches are lavaged with physiological saline, and the specific radioimmunoassay described above is used to assay LTB4 in the washings. This test provides an indication of inhibitory effects against 5-LO in an inflammatory milieu.

Where only a bound is given, the exact number is not on record here.

As for `COC1(c2cccc(Sc3ccc4c(c3)n(C)c(=O)n4C)c2)CCOCC1` [Example 1, 4-[3-(1,3-dimethyl-2-oxo-2,3-dihydrobenzimidazol-5-ylthio)phenyl]-4-methoxytetrahydropyran], the ED50 was under 2 mg/kg.
